Measured values from ChEMBL document CHEMBL1133475, “Inhibitors of NF-kappaB and AP-1 gene expression: SAR studies on the pyrimidine portion of 2-chloro-4-trifluoromethylpyrimidine-5-[N-(3', 5'-bis(trifluoromethyl)phenyl)carboxamide]” (J Med Chem, 2000).

species on record: Homo sapiens; test: Compound was tested for permeability in Caco-2 cells by HPLC method; assay type: ADME, cell-based

Row | Permeability | Structure (SMILES)
1 | 6.2e-06 cm/s | Cc1nc(Cl)ncc1C(=O)Nc1cc(C(F)(F)F)cc(C(F)(F)F)c1
2 | 3.1e-06 cm/s | CCCc1nc(Cl)ncc1C(=O)Nc1cc(C(F)(F)F)cc(C(F)(F)F)c1
3 | 5.8e-06 cm/s | CCc1nc(Cl)ncc1C(=O)Nc1cc(C(F)(F)F)cc(C(F)(F)F)c1

Continued, molecule first:

Row | Structure (SMILES) | Permeability
4 | O=C(Nc1cc(C(F)(F)F)cc(C(F)(F)F)c1)c1cnc(Cl)nc1-c1cccs1 | 2.1e-06 cm/s
5 | O=C(Nc1cc(C(F)(F)F)cc(C(F)(F)F)c1)c1cnc(F)nc1C(F)(F)F | 1.9e-06 cm/s
6 | O=C(Nc1cc(C(F)(F)F)cc(C(F)(F)F)c1)c1cnc(Cl)nc1C(F)(F)F | 1.1e-06 cm/s
7 | O=C(Nc1cc(C(F)(F)F)cc(C(F)(F)F)c1)c1cnc(Cl)nc1 | 6.1e-06 cm/s
8 | O=C(Nc1cc(C(F)(F)F)cc(C(F)(F)F)c1)c1cnc(Cl)nc1Cl | 3.1e-06 cm/s
9 | O=C(Nc1cc(C(F)(F)F)cc(C(F)(F)F)c1)c1cnc(Cl)nc1C(F)(F)C(F)(F)F | 9e-07 cm/s
10 | O=C(Nc1cc(C(F)(F)F)cc(C(F)(F)F)c1)c1cnc(Cl)nc1-c1ccccc1 | 9e-07 cm/s
